Tests used:
[1] = test system: Mycobacterium tuberculosis Erdman (autoluminescent); assay: total FIC50 (Loewe) at 50% inhibition, three-drug combination (log2); higher = more antagonistic
Description: (§1)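 DiaMOND equipotent three-drug combination dose responses (10 doses, 1.5- or 2-fold spacing, centred on IC90) against autoluminescent M. tuberculosis Erdman in 8 in vitro models. Read-out is OD600, or luminescence for the intracellular and dormancy models, normalised to untreated wells. Hill-fit Einf, AUC25 and GRinf are potency metrics; FIC50 and FIC90 are total Loewe fractional inhibitory concentrations as log2 (negative = synergy).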

[2] = test system: Mycobacterium tuberculosis Erdman (autoluminescent); assay: total FIC90 (Loewe) at 90% inhibition, three-drug combination (log2); higher = more antagonistic
Description: as §1

[3] = test system: Mycobacterium tuberculosis Erdman (autoluminescent); assay: Einf, fitted maximum growth inhibition of three-drug combination (fraction); higher = stronger maximal inhibition
Description: as §1

[4] = test system: Mycobacterium tuberculosis Erdman (autoluminescent); assay: AUC25, normalised area under dose response up to IC25 (three-drug combination) (fraction (0-1)); higher = more potent at low dose
Description: as §1

[5] = test system: Mycobacterium tuberculosis Erdman (autoluminescent); assay: GRinf, maximum normalised growth rate inhibition (three-drug combination) (unitless (-1 to 1)); higher = less effect (negative = killing)
Description: as §1

COc1nc2ccc(Br)cc2cc1[C@@H](c1ccccc1)[C@@](O)(CCN(C)C)c1cccc2ccccc12 [bedaquiline] + CC[C@@H](CO)NCCN[C@@H](CC)CO [ethambutol] + NNC(=O)c1ccncc1 [isoniazid]
Conditions	AUC25, [4]	Einf, [3]	GRinf, [5]	total FIC50, [1]	total FIC90, [2]
in vitro model: acidic pH 5.7, time point: constant (~7 days, model-specific)	0.112	0.858	-0.682	0.0458	–
in vitro model: acidic pH 5.7, time point: terminal (~4-5 doublings, model-specific)	0.0484	0.953	-0.339	0.537	-0.855
in vitro model: intracellular J774, time point: constant = terminal	–	0.988	-0.401	–	-0.307

Conditions	AUC25, [4]	Einf, [3]	GRinf, [5]	total FIC50, [1]	total FIC90, [2]
in vitro model: butyrate, time point: constant (~7 days, model-specific)	0.0535	0.943	-0.0949	0.537	–
in vitro model: butyrate, time point: terminal (~4-5 doublings, model-specific)	0.0425	0.975	-0.105	0.472	-0.153
in vitro model: cholesterol 0.05 mM, time point: constant (~7 days, model-specific)	0.0741	0.695	-0.191	0.858	–
in vitro model: cholesterol 0.05 mM, time point: terminal (~4-5 doublings, model-specific)	0.0839	0.891	-0.205	1.12	0.995
in vitro model: cholesterol-high 0.2 mM, time point: constant (~7 days, model-specific)	0.026	0.998	-0.751	1.05	–
in vitro model: cholesterol-high 0.2 mM, time point: terminal (~4-5 doublings, model-specific)	0.0384	1	-0.702	1.09	0.96
in vitro model: dormancy (butyrate + nitrate, low O2), time point: constant (~7 days, model-specific)	0.121	0.849	0.491	1.04	–
in vitro model: dormancy (butyrate + nitrate, low O2), time point: terminal (~4-5 doublings, model-specific)	0.0982	0.987	-0.0322	0.301	0.198
in vitro model: standard 7H9 glycerol, time point: constant = terminal	0.0658	0.957	-0.0846	0.398	–
in vitro model: valerate, time point: constant (~7 days, model-specific)	0.116	0.912	-0.0812	0.656	–
in vitro model: valerate, time point: terminal (~4-5 doublings, model-specific)	0.0717	0.954	-0.0498	0.744	0.58

COc1nc2ccc(Br)cc2cc1[C@@H](c1ccccc1)[C@@](O)(CCN(C)C)c1cccc2ccccc12 [bedaquiline] + CC[C@@H](CO)NCCN[C@@H](CC)CO [ethambutol] + O=[N+]([O-])c1cn2c(n1)OC[C@@H](OCc1ccc(OC(F)(F)F)cc1)C2 [pretomanid]
Conditions	AUC25, [4]	Einf, [3]	GRinf, [5]	total FIC50, [1]	total FIC90, [2]
in vitro model: acidic pH 5.7, time point: constant (~7 days, model-specific)	0.0902	0.854	-0.482	0.869	–
in vitro model: acidic pH 5.7, time point: terminal (~4-5 doublings, model-specific)	0.0847	0.982	-0.316	0.639	0.498
in vitro model: intracellular J774, time point: constant = terminal	–	0.938	-0.203	–	-1.11

Conditions	AUC25, [4]	Einf, [3]	GRinf, [5]	total FIC50, [1]	total FIC90, [2]
in vitro model: butyrate, time point: constant (~7 days, model-specific)	0.059	0.925	-0.0548	0.544	–
in vitro model: butyrate, time point: terminal (~4-5 doublings, model-specific)	0.0482	0.966	-0.0543	0.327	-0.226
in vitro model: cholesterol 0.05 mM, time point: constant (~7 days, model-specific)	0.0996	0.781	-0.351	0.964	–
in vitro model: cholesterol 0.05 mM, time point: terminal (~4-5 doublings, model-specific)	0.0849	0.927	-0.277	1.08	1.26
in vitro model: cholesterol-high 0.2 mM, time point: constant (~7 days, model-specific)	0.0639	0.893	-0.294	1.17	–
in vitro model: cholesterol-high 0.2 mM, time point: terminal (~4-5 doublings, model-specific)	0.0509	1	-0.825	1.06	1.39
in vitro model: dormancy (butyrate + nitrate, low O2), time point: constant (~7 days, model-specific)	0.123	0.894	0.353	0.967	–
in vitro model: dormancy (butyrate + nitrate, low O2), time point: terminal (~4-5 doublings, model-specific)	0.115	0.997	-0.265	0.317	0.645
in vitro model: standard 7H9 glycerol, time point: constant = terminal	0.0898	0.972	-0.0976	0.231	–
in vitro model: valerate, time point: constant (~7 days, model-specific)	0.139	0.897	-0.0325	-0.239	–
in vitro model: valerate, time point: terminal (~4-5 doublings, model-specific)	0.0867	0.948	-0.0164	0.257	0.215

COc1nc2ccc(Br)cc2cc1[C@@H](c1ccccc1)[C@@](O)(CCN(C)C)c1cccc2ccccc12 [bedaquiline] + CO[C@H]1/C=C/O[C@@]2(C)Oc3c(C)c(O)c4c(O)c(c(/C=N/N5CCN(C6CCCC6)CC5)c(O)c4c3C2=O)NC(=O)/C(C)=C\C=C\[C@H](C)[C@H](O)[C@@H](C)[C@@H](O)[C@@H](C)[C@H](OC(C)=O)[C@@H]1C [rifapentine] + CO[C@H]1/C=C/O[C@@]2(C)Oc3c(C)c(O)c4c(O)c(c(/C=N/N5CCN(C)CC5)c(O)c4c3C2=O)NC(=O)/C(C)=C\C=C\[C@H](C)[C@H](O)[C@@H](C)[C@@H](O)[C@@H](C)[C@H](OC(C)=O)[C@@H]1C [rifampicin]
Conditions	AUC25, [4]	Einf, [3]	GRinf, [5]	total FIC50, [1]	total FIC90, [2]
in vitro model: acidic pH 5.7, time point: constant (~7 days, model-specific)	0.0935	0.893	-0.273	0.903	–
in vitro model: acidic pH 5.7, time point: terminal (~4-5 doublings, model-specific)	0.082	0.985	-0.265	0.765	0.574
in vitro model: intracellular J774, time point: constant = terminal	–	0.925	-0.129	–	0.499

Conditions	AUC25, [4]	Einf, [3]	GRinf, [5]	total FIC50, [1]	total FIC90, [2]
in vitro model: butyrate, time point: constant (~7 days, model-specific)	0.119	0.965	-0.195	0.199	-0.101
in vitro model: butyrate, time point: terminal (~4-5 doublings, model-specific)	0.102	0.987	-0.131	0.144	0.454
in vitro model: cholesterol 0.05 mM, time point: constant (~7 days, model-specific)	0.118	0.73	-0.233	0.198	–
in vitro model: cholesterol 0.05 mM, time point: terminal (~4-5 doublings, model-specific)	0.0915	0.927	-0.216	0.249	0.0937
in vitro model: cholesterol-high 0.2 mM, time point: constant (~7 days, model-specific)	0.0646	0.957	-0.49	0.444	-0.0134
in vitro model: cholesterol-high 0.2 mM, time point: terminal (~4-5 doublings, model-specific)	0.0574	0.998	-0.604	0.544	0.3
in vitro model: dormancy (butyrate + nitrate, low O2), time point: constant (~7 days, model-specific)	0.0847	0.905	0.174	0.141	0.723
in vitro model: dormancy (butyrate + nitrate, low O2), time point: terminal (~4-5 doublings, model-specific)	0.0726	0.982	-0.165	0.273	0.653
in vitro model: standard 7H9 glycerol, time point: constant = terminal	0.0706	0.924	-0.0268	0.258	0.35
in vitro model: valerate, time point: constant (~7 days, model-specific)	0.046	0.873	-0.0628	0.679	–
in vitro model: valerate, time point: terminal (~4-5 doublings, model-specific)	0.028	0.951	-0.0371	0.579	0.302

From the supplement of paper PMC8617591
